Results reported in patent US11274328B2, “Methods for producing rebaudioside D and rebaudioside M and compositions thereof” (SICHUAN INGIA BIOSYNTHETIC CO., LTD., priority 2018, dated 2022).
Blank lines part the entries; values can stand above or below the compound they belong to.

Key:
[1] = Sensory analysis (triangle test), taste comparison with sucrose as control sample; format: in vivo; conditions: vs sucrose; for Difference (number of answers) / No difference (number of answers): aqueous solutions of same sweetness
From the text: The sweetener composition shall be tested, evaluated and analyzed by referring to Sensory Analysis Methodology (Triangular Test) (BS ISO 4120) and Sensory Analysis Method (Triangle Test) (GB/T 12311). The specific analysis method is as follows:
Method and principle: A group of three samples shall be provided to evaluators, two of which are identical and the evaluators shall select a single sample.
Preparation of test samples: Enough samples A and B shall be provided, and every three test samples are a group.
Sample groups with equal number of samples shall be prepared from laboratory samples in the following six combinations: ABB, AAB, ABA, BAA, BBA and BAB.
Test requirements: Evaluators shall not make conclusion as to the nature of samples from sample supply methods. All test sample groups shall be prepared in the same way [the same equipment, the same container, the same quantity of products and the same arrangement (triangle, straight line, etc.)]. In any sample group, the temperature of test samples shall be the same, and if possible, the temperature of all other sample groups in the test series provided shall also be the same. Test sample containers shall be numbered generally with three random digits. The number shall be different for each test.
Test techniques: Evaluators shall be notified of the test purpose to the extent that their conclusions are not biased. Groups of prepared samples shall be randomly assigned to the evaluators, then the evaluators shall check test samples of each group in the specified order, and the order shall be the same in the same series of tests. While evaluating three test samples in the same group, the evaluators shall have the opportunity to retest each sample. The test leader can tell the evaluators the quantity and volume of samples provided when necessary. When the number of evaluators is less than a multiple of 6, the following two approaches can be taken. (a) Discard redundant sample groups, or (b) Provide each evaluator with six groups of samples for retest.
When the evaluator cannot identify the difference, the answer “no difference” is allowed.
The number of “difference” or “no difference” answers shall be counted. When the number of evaluators (n) is greater than 100, the minimum number of answers needed to determine the significant difference in the triangle test at different significance levels (X) is calculated according to the following formula, and the nearest integer value shall be taken. Where, α is the significance level, which is an expected value.
The above evaluation and analysis methods were applied to analyze different compositions, with sucrose as the control sample. Samples and the control sample were prepared respectively into aqueous solutions with the same sweetness and then tested according to the requirements of the above-mentioned sensory analysis method. […]
Rebaudioside A (>97%), DM 3:1 mixture, DM 3:1 mixture-rebaudioside A (1:9, w/w), DM 3:1 mixture-rebaudioside A (9:1, w/w), DM 3:1 mixture-rebaudioside A (3:7, w/w) were analyzed according to the evaluation and analysis methods described above, with sucrose as the control sample. Samples and the control sample were prepared respectively into aqueous solutions with the same sweetness and then tested according to the requirements of the above-mentioned sensory analysis method. […]
Rebaudioside A (>97%), DM 3:1 mixture, DM 3:1 mixture-rebaudioside A (3:7, w/w), DM 3:1 mixture-rebaudioside A (7:3, w/w), DM 3:1 mixture-rebaudioside A (4:6, w/w) were analyzed according to the evaluation and analysis methods described above, with sucrose as the control sample. Samples and the control sample were prepared respectively into aqueous solutions with the same sweetness and then tested according to the requirements of the above-mentioned sensory analysis method. Effective evaluators are 125 primary evaluators, who were allowed to answer “no difference”. […]

[2] = relative to sucrose of the same weight; cited from earlier work
[3] = Solubility of reb M in water and solvents; format: physicochemical
[4] = Heat and pH stability of reb M; format: physicochemical
[5] = Evaluation I, 135 primary evaluators
[6] = Evaluation II, 135 primary evaluators
[7] = Evaluation III, 125 primary evaluators
[8] = Evaluation IV, 128 primary evaluators

Compound: 13-[(2O-β-D-glucopyranosyl-3-O-β-D-glucopyranosyl-β-D-glucopyranosyl)oxy]kaur-16-en18-oic acid, 2-O-β-D-glucopyranosyl-3-O-β-D-glucopyranosyl-β-D-glucopyranosyl ester [RD]
Difference (number of answers) [1, 5]: 79
No difference (number of answers) [1, 5]: 56
Conclusion (taste compared with sucrose) [1, 5]: Similar
Sweetness Multiple (1 for sucrose of the same weight) [2]: 150-250

Compound: C=C1C[C@@]23CC[C@H]4[C@@](C)(CCC[C@@]4(C)C(=O)O[C@@H]4O[C@H](CO)[C@@H](O)[C@H](O)[C@H]4O)[C@@H]2CC[C@]1(O[C@@H]1O[C@H](CO)[C@@H](O)[C@H](O)[C@H]1O[C@@H]1O[C@H](CO)[C@@H](O)[C@H](O)[C@H]1O)C3 [STv, stevioside, reference compound]
Sweetness Multiple (1 for sucrose of the same weight) [2]: 270-300

Compound: C=C1C[C@@]23CC[C@H]4[C@@](C)(CCC[C@@]4(C)C(=O)O[C@@H]4O[C@H](CO)[C@@H](O)[C@H](O)[C@H]4O)[C@@H]2CC[C@]1(O[C@@H]1O[C@H](CO)[C@@H](O)[C@H](O[C@@H]2O[C@H](CO)[C@@H](O)[C@H](O)[C@H]2O)[C@H]1O[C@@H]1O[C@H](CO)[C@@H](O)[C@H](O)[C@H]1O)C3 [RA, rebaudioside A]
Difference (number of answers) [1, 6]: 85
No difference (number of answers) [1, 6]: 50
Conclusion (taste compared with sucrose) [1, 6]: Dissimilar
Difference (number of answers) [1, 7]: 78
No difference (number of answers) [1, 7]: 47
Conclusion (taste compared with sucrose) [1, 7]: Dissimilar
Difference (number of answers) [1, 8]: 82
No difference (number of answers) [1, 8]: 46
Conclusion (taste compared with sucrose) [1, 8]: Dissimilar
Sweetness Multiple (1 for sucrose of the same weight) [2]: 350-450

solubility in organic solvents ([3]; acetone, benzene, chloroform, and ether): insoluble
solubility in diluted alcohols ([3]; diluted solutions of methanol, ethanol, n-propanol, and isopropanol): soluble
solubility in water ([3]; water, increases with an increase in temperature): around 0.3%
heat and pH stability [4]: heat and pH-stable
Compound: C=C1C[C@@]23CC[C@H]4[C@@](C)(CCC[C@@]4(C)C(=O)O[C@@H]4O[C@H](CO)[C@@H](O)[C@H](O[C@@H]5O[C@H](CO)[C@@H](O)[C@H](O)[C@H]5O)[C@H]4O[C@@H]4O[C@H](CO)[C@@H](O)[C@H](O)[C@H]4O)[C@@H]2CC[C@]1(O[C@@H]1O[C@H](CO)[C@@H](O)[C@H](O[C@@H]2O[C@H](CO)[C@@H](O)[C@H](O)[C@H]2O)[C@H]1O[C@@H]1O[C@H](CO)[C@@H](O)[C@H](O)[C@H]1O)C3 [RM]
Difference (number of answers) [1, 5]: 97
No difference (number of answers) [1, 5]: 38
Conclusion (taste compared with sucrose) [1, 5]: Dissimilar
Sweetness Multiple (1 for sucrose of the same weight) [2]: 200-350
